Measurements published in patent publication US20100099109A1, “Methods for Analyzing Drug Response” (NODALITY, INC., A DELAWARE CORPORATION, priority 2008, published 2010).
“Also recorded” adds a separate entry of the source.

Columns and labels:
[1] = system: Mylotarg sensitive cell lines; assay: Mylotarg exposure and modulated signaling in sensitive cell lines; assay type: cell-based
Description: (§1) The experimental measurements included forward and side scatter, the use of viability dyes (amine aqua and propidium iodide (PI)), and determination of cell cycle and apoptosis by measuring DNA content with DRAQ5. Additionally, cell cycle progression was measured by determining levels of cyclin B1, phosphorylated histone H3, and phosphorylated CDK-1. All these determinations were made in freshly thawed as well as in cultured cycling cells.
(§2) After incubation with fluorochrome-conjugated antibody panels that recognized: p-H2AX, p-Chk2, p-ATM, p-53, cleaved PARP and cleaved caspase 3, cells were processed for cytometry as described above.
(§3) Experiments were conducted in which cell lines were exposed for 5-15 minutes to growth factors and cytokines, after which cells were fixed, permeabilized and incubated with panels of fluorochrome-conjugated antibody panels that recognized intracellular signaling molecules. After processing, cells were acquired on the cytometer.

[2] = lyophilized powder; cited from earlier work
[3] = system: U937 cell line; assay: Mylotarg/Nocodazole exposure, multiparameter flow cytometry of DNA damage, cell cycle and apoptosis; assay type: cell-based
From the text: (§4) ATM activity also phosphorylates Chk2 and p53. […] Cyclin B1 is produced during the G2 phase of the cell cycle and its accumulation drives the cell cycle into M phase. Therefore, low levels of Cyclin B1 mark G1 and S phases, high levels mark G2 phase, and higher levels mark M phase. Histone H3 (S28) becomes phosphorylated in M phase, making p-Histone H3(S28) a useful marker of cells in M phase and not G2. It is also possible to monitor the G2/M phases of the cell cycle by measuring the phosphorylation status of Cdk1, previously known as Cdc2, a cyclin-dependent protein kinase that controls the cell cycle entry from G2 to M phase. An inhibitory phosphorylation on Cdk1 is removed by CDC25C in the M phase transition, allowing G2 cells to be distinguished from M cells based on levels of p-Cdk1. […] Treating cells with the microtubule polymerization inhibitor Nocodazole induces cells cycle arrest in M phase without DNA damage.
as §1, §2

[4] = system: KG-1 cells; assay: Mylotarg exposure, multiparameter flow cytometry of DNA damage, cell cycle and apoptosis; assay type: cell-based
From the text: as §4, §1
(§5) The experiments were conducted in a similar fashion as shown above for examples 1 and 2. […] After incubation with fluorochrome-conjugated antibody panels that recognized: p-H2AX, p-Chk2, p-ATM, p-53, cleaved PARP and cleaved caspase 3, cells were processed for cytometry as described above.

[5] = system: GDM-1 cells; assay: as above; assay type: cell-based
From the text: as §4, §1, §5

[6] = system: primary AML cell sample; assay: Mylotarg response signatures (DNA damage response by p-CHK2/p-H2AX; apoptosis by cleaved PARP, FSC and viability dyes), flow cytometry; assay type: cell-based, human
Description: The present illustrative example represents how to analyze cells in one embodiment of the present invention. There are several steps in the process, such as treatment with modulator, incubation with antibodies, and processing sample for acquisition of cells on the cytometer. Treatment with modulator(s) can start with thawed cryopreserved cells and end with cells fixed in PFA and permeabilized in methanol. Then the cells can be incubated with an antibody directed to a particular protein of interest and then analyzed using a flow cytometer. A protocol similar to the following was used to analyze AML cells from patient samples. The materials and methods described in this example can be used and/or were used in the other examples described below.
Cell thawing and live/dead staining: Cells are thawed_in a 37° C. water bath, gently resuspend in the vial, and transferred to a 15 mL conical tube. The 15 mL tube is centrifuged at 930 RPM (200×g) for 8 minutes at room temperature. The supernatant is then aspirated, and the pellet is gently resuspended in 1 mL media A. The cell suspension is filtered through a 70 um cell strainer into a new 15 mL tube. The cell strainer is then rinsed with 1 mL media A and another 12 mL of media A into the 15 mL tube. Collected cells are then mixed into an even suspension. A 20 μl, aliquot of this suspension is immediately transferred into a 96-well plate containing 180 μl, PBS+4% FBS+CD45 Alexa 700+PI to determine cell count and viability post spin. After the determination, the 15 mL tubes are centrifuged at 930 RPM (200×g) for 8 minutes at room temperature. The resulting supernatant is aspirated, and the cells are gently resuspended in 4 mL PBS+4 μl, Amine Aqua (another equivalent viability dye can be used instead) and incubated for 15 min in a 37° C. incubator. 10 mL RPMI+1% FBS are added to the cell suspension, followed by inversion mixing. The 15 mL tubes are centrifuged at 930 RPM (200×g) for 8 minutes at room temperature. The stained cells are then resuspended in Media A at the desired cell concentration (1.25×10^6/mL). • a. Samples with low numbers of cells (<18.5×10^6) are resuspend in up to 15 mL of media. • b. For samples with high numbers of cells (>18.5×10^6), the volume is raised to 10 mL with media A and the desired volume is transferred to a new 15 mL tube, adjusting the cell concentration to 1.25×10^6 cells/mL. 1.6 mL of the above cell suspension are then transferred into wells of a multi-well plate, from which 80 ul are distributed into each well of a subsequent plate. Plates are covered with a lid (Nunc) and placed in a 37° C. incubator for 2 hours to rest.
Treatment of Cells with a Modulator: A concentration for each stimulant that is five fold (5×) more than the final concentration is prepared using Media A as diluent. The 5× stimulants are arrayed in a standard 96 well v-bottom plate that correspond to the wells on the plate with cells to be stimulated. Fixative is prepared by dilution of stock 16% paraformaldehyde with PBS to a concentration that is 1.5×, then placed in a 37° C. water bath. Once the plated cells have completed their incubation, the plate(s) are taken out of the incubator and place in a 37° C. water bath next to the pipette apparatus. Prior to addition of stimulant, each plate of cells is taken from the water bath and gently swirled to resuspend any settled cells. The stimulant is pipetted into the cell plate, which is then held over a vortexer set to “7” and mixed for 5 seconds, and followed by the return of the deep well plate to the water bath.
Fixing Cells: 200 μL of the fixative solution (final concentration is 1.6%) is dispensed into wells and then mixed on the titer plate shaker on high for 5 seconds. The plate is then covered with foil sealer and floated in 37° C. water bath for 10 min, followed by a 6 min spin at 2000 rpm at room temperature.

[7] = system: Ramos cells; assay: Mylotarg exposure, multiparameter flow cytometry of DNA damage and cell cycle; assay type: cell-based
From the text: as §4
The experimental measurements included forward and side scatter, the use of viability dyes (amine aqua and propidium iodide (PI)), and determination of cell cycle and apoptosis by measuring DNA content with DRAQ5. Additionally, cell cycle progression was measured by determining levels of cyclin B1, phosphorylated histone H3, and phosphorylated CDK-1. All these determinations were made in freshly thawed as well as in cultured cycling cells. […]

[8] = system: Peripheral blood mononuclear cells and bone marrow mononuclear cells derived from AML and healthy samples; assay: Expression marker levels after Mylotarg exposure; assay type: cell-based
[9] = system: Healthy myeloid cells; assay: Mylotarg treatment of healthy myeloid cells (DNA damage and apoptosis); assay type: cell-based; conditions: at 72 h
From the text: In some embodiments, the invention may identify a set of drug response signatures in disease cells. The drug response signature is a profile of the activation levels of activatable elements following in vitro exposure of patient samples to a drug and one or more modulators, and can predict whether patients may respond to the drug. […] In some embodiments, other measurements of cell viability may be used, for example cleaved caspase 3, or amount of dyes staining or other stains, for example: propidium idodide, SYTOX, TUNEL, or acridine orange. […] For review, see van Attikum H., and Gasser S. M. Trends in Cell Biology 19: pp. 207-17 (2009). ATR and ATM kinase activity in response to DNA damage activates Chk1 and Chk2, respectively. […] For review, see Abraham, R. T. Cell cycle checkpoint signaling through the ATM and ATR kinases. Genes & Dev. 15: 2177-96 (2001). […] This is also seen at earlier timepoints.

[10] = system: Mylotarg refractory cell lines; assay: Mylotarg exposure and modulated signaling in resistant cell lines; assay type: cell-based
Description: as §1, §2, §3

**Q.** Which G2/M arrest [1] does the source give for gemtuzumab ozogamicin [Mylotarg] here?
**A.** G2/M arrest

**Q.** What about the “cyclin B1 levels” value [1] of the same substance?
**A.** increase in cyclin B1 levels; also recorded: increased cyclin B1 levels

**Q.** What about the “p-H2AX and p-Chk2” value [1] of the same substance?
**A.** increased p-H2AX and p-Chk2 without transporter inhibitor

**Q.** And the “cell death (scatter, viability and DNA content dyes)” value ([1]; compared to refractory cell lines)?
**A.** more cell death; also recorded: increased percentage of dead cells

**Q.** And the “light sensitivity of the drug product” value [2]?
**A.** light sensitive

**Q.** And the “DNA damage response (levels of p-H2AX, p-Chk2, p-ATM, p-53)” value [3]?
**A.** increased levels; also recorded: significant increase

**Q.** And the “cell cycle arrest (Cyclin B1, p-Histone H3(S28), p-Cdk1)” value ([3]; 24 hours exposure)?
**A.** arrest at the G2/M checkpoint

**Q.** And the “cell cycle arrest (Cyclin B1, p-Histone H3(S28))” value ([3]; 48 hours exposure)?
**A.** arrest at the G2/M checkpoint, and a minor cell population with increased p-histone H3(S28), indicating minor arrest in M phase

**Q.** What about the “DNA damage response (levels of p-H2AX, p-p53, p-Chk2, p-ATM)” value [4] of the same substance?
**A.** does not induce changes; also recorded: this was not the case

**Q.** And the “cell cycle arrest and apoptosis after Mylotarg treatment” value [4]?
**A.** resistant to cell cycle arrest and apoptosis

**Q.** What about the “proportion of populations of cells arrested in the cell cycle (p-Histone H3(S28), p-CDK1, CyclinB1)” value [4] of the same substance?
**A.** does not largely increase

**Q.** And the “DNA damage response (levels of p-H2AX, p-p53, p-Chk2, p-ATM)” value [5]?
**A.** does not induce changes; also recorded: this was not the case

**Q.** And the “cell cycle arrest and apoptosis after Mylotarg treatment” value [5]?
**A.** resistant to cell cycle arrest and apoptosis

**Q.** What about the “proportion of populations of cells arrested in the cell cycle (p-Histone H3(S28), p-CDK1, CyclinB1)” value [5] of the same substance?
**A.** does not largely increase

**Q.** What about the “CD33++ cells with induced DNA damage response, as measured by p-CHK2 and p-H2AX” value ([6]; signature 1 sample, 6 hours of exposure to Mylotarg) of the same substance?
**A.** approximately 60%

**Q.** What about the “live myeloid cells becoming PARP+” value ([6]; signature 1 sample, after 24 and 48 hours) of the same substance?
**A.** 22%

**Q.** And the “CD33++ cells with induced DNA damage response, as measured by p-CHK2 and p-H2AX” value ([6]; signature 2 sample, 6 hours of exposure to Mylotarg)?
**A.** approximately 80%

**Q.** What about the “live myeloid cells becoming PARP+” value ([6]; signature 2 sample, after 24 or 48 hours) of the same substance?
**A.** 4%

**Q.** And the “live myeloid cells becoming PARP+” value ([6]; signature 3 sample)?
**A.** 8%

**Q.** And the “CD33+ cells with induced DNA damage response, as measured by p-CHK2 and p-H2AX” value ([6]; signature 3 sample, 6 hours of exposure to Mylotarg)?
**A.** approximately 15%

**Q.** And the “DNA damage response (levels of p-H2AX, p-p53, p-Chk2, p-ATM)” value [7]?
**A.** does not induce changes

**Q.** And the “proportion of populations of cells arrested in the cell cycle (p-Histone H3(S28), p-CDK1, CyclinB1)” value [7]?
**A.** does not largely increase

**Q.** And the “expression levels of the CD33 and CD13 phenotypic markers for myeloid cells” value ([8]; exposed for 6 hours)?
**A.** reduction

**Q.** And the CD11b levels ([8]; same exposure conditions)?
**A.** remain unchanged

**Q.** And the CD13 levels ([8]; twenty-four (24) hours of exposure)?
**A.** reduced

**Q.** What about the “cleaved PARP and apoptosis” value [9] of the same substance?
**A.** increases in cleaved PARP and apoptosis

**Q.** And the “levels of p-Chk2, p-H2AX, p-ATM, p-P53” value [9]?
**A.** increased levels

**Q.** And the G2/M arrest [10]?
**A.** failure to undergo G2/M arrest

**Q.** What about the cell death [10] of the same substance?
**A.** only modest increase in cell death

**Q.** What about the “cyclin B1 levels” value [10] of the same substance?
**A.** failure to increase cyclin B1 levels

**Q.** What about the “p-H2AX and p-Chk2” value [10] of the same substance?
**A.** minimal increase in p-H2AX and p-Chk2
